Assay results published in paper PMC7187312 (The New Phytologist, 2020).

Test system: Spinacia oleracea PM H^+-ATPase preincubated with FC/14-3-3 or TeA/14-3-3
Type: biochemical

## C=CC(C)(C)OC[C@H]1O[C@H](O[C@@H]2C3=C([C@H](C)COC(C)=O)C[C@H](O)[C@]3(C)/C=C3/[C@@H](COC)CC[C@H]3[C@@H](C)[C@H]2O)[C@H](O)[C@@H](OC(C)=O)[C@@H]1O [FC, Fusicoccin]
  effect on PM H^+-ATPase activity: activate
  specific activity: 44.1 Pi mg^−1 protein min^−1
